We go through 26 compounds from US20080234266A1, “Squaric Acid Derivatives II” (priority 2005, published 2008).

pIC50: −log10 of the molar value.

The assay concerns the target T1, CHK1 kinase (Homo sapiens, UniProt O14757).
T1 construct: glutathione S-transferase (GST); made in house; host or cells: Sf21 insect cells (S. frugiperda), baculovirus
T1 sequence (O14757 1-476): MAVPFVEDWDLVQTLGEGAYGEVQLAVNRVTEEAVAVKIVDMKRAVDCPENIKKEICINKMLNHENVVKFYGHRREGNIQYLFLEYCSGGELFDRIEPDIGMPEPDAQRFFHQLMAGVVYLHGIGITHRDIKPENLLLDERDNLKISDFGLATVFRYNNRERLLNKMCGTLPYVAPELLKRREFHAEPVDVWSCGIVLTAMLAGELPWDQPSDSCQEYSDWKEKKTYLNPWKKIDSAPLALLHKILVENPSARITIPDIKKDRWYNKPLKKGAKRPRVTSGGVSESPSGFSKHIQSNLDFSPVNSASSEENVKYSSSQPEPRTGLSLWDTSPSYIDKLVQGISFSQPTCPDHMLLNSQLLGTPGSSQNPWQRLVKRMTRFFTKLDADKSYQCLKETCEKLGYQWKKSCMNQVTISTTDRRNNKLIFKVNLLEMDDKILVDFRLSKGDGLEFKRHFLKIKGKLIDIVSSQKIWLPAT
Put plainly: Flashplate method (CHK1), measurement of the CHK1 kinase activity. Type of assay: biochemical. The following applies: class symbols; 'Affinity to receptors'. On the procedure: CHK1 kinase is expressed for the purposes of protein production in insect cells (Sf21; S. frugiperda) and subsequent purification by affinity chromatography as fusion protein with glutathione S-transferase in a baculovirus expression vector. The cultivation, infection and digestion of the cells as well as the purification of the fusion protein by column chromatography are carried out in accordance with manufacturer-oriented generic working instructions.
The kinase activity is measured using various available measurement systems. In the scintillation proximity method (Sorg et al., J. of. Biomolecular Screening, 2002, 7, 11-19), the flashplate method or the filter binding test, the radioactive phosphorylation of a protein or peptide as substrate is measured using radioactively labelled ATP (γ^32P-ATP, (γ^33P-ATP). In the case of the presence of an inhibitory compound, a reduced radioactive signal, or none at all, can be detected. Furthermore, homogeneous time-resolved fluorescence resonance energy transfer (HTR-FRET) and fluorescence polarisation (FP) technologies are useful as assay methods (Sills et al., J. of Biomolecular Screening, 2002, 191-214).
The test plates used are 384-well streptavidin-coated Flashplates Plus® from Perkin Elmer (Cat.No. SMP410A001PK). The assay plate is equilibrated with 75 μl of assay buffer per well 30 min before commencement of the experiment. The buffer is sucked out before commencement of the experiment, and the components of the kinase reaction described below are pipetted onto the plate.
CHK1 kinase, a biotinylated substrate peptide (for example CHKtide: […]), is incubated with radioactively labelled ATP in the presence and absence of test substances at 30° Celsius and a total volume of 50 μl. The reaction is terminated using 25 μl of a 0.2 M EDTA solution. After incubation for 30 min at room temperature, the supernatants are filtered off with suction, and the wells are washed three times with 100 μl of 0.9% NaCl solution each time. The measurement of the bound radioactivity is carried out by means of a scintillation measuring instrument (Topcount NXT, Perkin-Elmer).
The full value used is the inhibitor-free kinase reaction. This should be approximately in the range 3000-4000 cpm. The pharmacological zero value used is staurosporin in a final concentration of 0.1 μM. The inhibitory values (IC50) are determined using the program RS1_MTS ( ).
Kinase reaction conditions per well:
0.15 μg of CHKtide ([…])
50 μl total volume (1-fold assay buffer reaction conditions)
Solutions used: • assay buffer:
0.1 mM Titriplex VI (EGTA
10 mM magnesium acetate 0.1% mercaptoethanol
pH=7.5 (to be set using hydrochloric acid) Bovine serum albumin (final concentration 0.1%) is not added until just before use. • stop solution:
0.2 M TitriplexIII (EDTA)
• γ^33P-ATP (Perkin-Elmer) • CHK1 kinase preparations: specific activity>50 U/mg • CHKtide solution: biotinylated peptide substrate (Biotrend) stored as stock solution (concentration 0.15 mg/ml).

For orientation: pIC50 means −log10 of the IC50, conventionally taken in molar units. Read a high pIC50 as a small IC50. `O=c1c(NCc2cc(O)cc(O)c2)c(Nc2ccc3[nH]cnc3c2)c1=O` [Compound A94, 3-(1H-benzimidazol-5-ylamino)-4-(3,5-di-hydroxybenzylamino)cyclobut-3-ene-1,2-dione] gave a pIC50 above 6.00.

In turn, `CNS(=O)(=O)c1cccc(CNc2c(Nc3ccc4[nH]cnc4c3)c(=O)c2=O)c1` [Compound A44, 3-(1H-benzimidazol-5-ylamino)-4-[3-(methyl-aminosulfonyl)benzylamino]cyclobut-3-ene-1,2-dione] gave a pIC50 below 6.00.

The compound `CCN(CC)c1c(Nc2c(NCc3cccc(O)c3)c(=O)c2=O)cc(C(F)(F)F)c2[nH]cnc12` [Compound A124, 3-(4-diethylamino-7-trifluoromethyl-1H-benzimidazol-5-ylamino)-4-(3-hydroxy-benzylamino)cyclobut-3-ene-1,2-dione] had a pIC50 below 6.00. Consider `O=c1c(NCCc2cccc(O)c2)c(Nc2ccc3[nH]cnc3c2)c1=O` [Compound A142, 3-(1H-benzimidazol-5-ylamino)-4-[2-(3-hydroxyphenyl)ethylamino]cyclobut-3-ene-1,2-dione], for which the pIC50 was below 6.00. `Cc1c(O)cccc1CNc1c(Nc2ccc3[nH]cnc3c2)c(=O)c1=O` [Compound A97, 3-(1H-benzimidazol-5-ylamino)-4-(3-hydroxy-2-methylbenzylamino)cyclobut-3-ene-1,2-dione] showed a pIC50 below 6.00.

For `O=c1c(NCc2cccc(O)c2)c(Nc2ccc3ncsc3c2)c1=O` [Compound A14, 3-(benzothiazol-6-ylamino)-4-(3-hydroxy-benzylamino)cyclobut-3-ene-1,2-dione], the pIC50 was above 6.00. `CS(=O)(=O)Nc1ccc(CNc2c(Nc3ccc4[nH]cnc4c3)c(=O)c2=O)cc1` [Compound A156, 3-(1H-benzimidazol-5-ylamino)-4-(4-methyl-sulfonylaminobenzylamino)cyclobut-3-ene-1,2-dione] gave a pIC50 below 6.00. The result for `O=c1c(NCc2cccc(OC(F)F)c2)c(Nc2ccc3nc[nH]c3c2)c1=O` [Compound A164, 3-(3H-benzimidazol-5-ylamino)-4-(3-difluoro-methoxybenzylamino)cyclobut-3-ene-1,2-dione] reads below 6.00; that for `O=c1c(NCc2ccc(O)cc2)c(Nc2ccc3[nH]cnc3c2)c1=O` [Compound A139, 3-(1H-benzimidazol-5-ylamino)-4-(4-hydroxy-benzylamino)cyclobut-3-ene-1,2-dione], below 6.00.

On to `O=c1[nH]c2ccc(CNc3c(Nc4ccc5[nH]cnc5c4)c(=O)c3=O)cc2[nH]1` [Compound A80, 3-(1H-benzimidazol-5-ylamino)-4-[(2-oxo-2,3-dihydro-1H-benzimidazol-5-ylmethyl)amino]-cyclobut-3-ene-1,2-dione], for which the pIC50 is below 6.00. The result for `O=c1c(Nc2ccc3[nH]cnc3c2)c(N2CCc3ccc(O)cc3C2)c1=O` [Compound A82, 3-(1H-benzimidazol-5-ylamino)-4-(7-hydroxy-3,4-dihydro-1H-isoquinolin-2-yl)cyclobut-3-ene-1,2-dione] reads below 6.00; that for `CC(C)(C)OC(=O)N1CCC(Oc2ccccc2CNc2c(Nc3ccc4[nH]cnc4c3)c(=O)c2=O)CC1` [Compound A146, 3-(1H-benzimidazol-5-ylamino)-4-[2-(1-tert-butyloxycarbonylpiperidin-4-yloxy)benzyl-amino]cyclobut-3-ene-1,2-dione], below 6.00; that for `O=c1c(NCc2cccc(O)c2)c(Nc2ccc3scnc3c2)c1=O` [Compound A119, 3-(benzothiazol-5-ylamino)-4-(3-hydroxy-benzylamino)cyclobut-3-ene-1,2-dione], below 6.00. For the compound `O=c1c(NCc2ccccc2OC2CCNCC2)c(Nc2ccc3[nH]cnc3c2)c1=O` [Compound A148, 3-(1H-benzimidazol-5-ylamino)-4-[2-(piperidin-4-yloxy)benzylamino]cyclobut-3-ene-1,2-dione], the pIC50 is below 6.00. `O=c1c(NCc2cccc(OCCO)c2)c(Nc2ccc3[nH]cnc3c2)c1=O` [Compound A107, 3-(1H-benzimidazol-5-ylamino)-4-[3-(2-hydroxyethoxy)benzylamino]cyclobut-3-ene-1,2-dione] had a pIC50 below 6.00.

In the case of `COCCNC(=O)CC(Nc1c(Nc2ccc3[nH]cnc3c2)c(=O)c1=O)c1cccc(O)c1` (centres unmarked) [Compound A117, 3-[2-(1H-benzimidazol-5-ylamino)-3,4-dioxo-cyclobut-1-enylamino]-3-(3-hydroxyphenyl)-N-(2-methoxyethyl)propionamide], the pIC50 is below 6.00. The result for `COc1cc(CNc2c(Nc3ccc4[nH]cnc4c3)c(=O)c2=O)ccc1F` [Compound A76, 3-(1H-benzimidazol-5-ylamino)-4-(4-fluoro-3-methoxybenzylamino)cyclobut-3-ene-1,2-dione] reads below 6.00; that for `O=c1c(NCc2cccc(O)c2)c(Nc2ccc3[nH]c(C(F)(F)F)nc3c2)c1=O` [Compound A10, 3-(1H-benzimidazol-2-trifluoromethyl-5-yl-amino)-4-(3-hydroxybenzylamino)cyclobut-3-ene-1,2-dione], below 6.00.

In turn, `CCN(CC)CCn1cnc2cc(Nc3c(N[C@H](C)c4cccc(O)c4)c(=O)c3=O)ccc21` [Compound A73, 3-[1-(2-diethylaminoethyl)-1H-benzimidazol-5-ylamino]-4-[(R)-1-(3-hydroxyphenyl)ethyl-amino]cyclobut-3-ene-1,2-dione] gave a pIC50 below 6.00. Compound `O=c1c(NCc2cccc(F)c2)c(Nc2ccc3[nH]cnc3c2)c1=O` [Compound A31, 3-(1H-benzimidazol-5-ylamino)-4-(3-fluoro-benzylamino)cyclobut-3-ene-1,2-dione] had a pIC50 below 6.00. The compound `O=c1c(NCc2cccc(O)c2)c(Nc2ccc3c(c2)NCC3)c1=O` [Compound A42, 3-(2,3-dihydro-1 H-indol-6-ylamino)-4-(3-hydroxybenzylamino)cyclobut-3-ene-1,2-dione] had a pIC50 below 6.00.

`CCN(CC)CCn1cnc2ccc(Nc3c(NCc4ccc(-c5nnn[nH]5)cc4)c(=O)c3=O)cc21` [Compound A167, 3-[3-(2-diethylaminoethyl)-3H-benzimidazol-5-ylamino]-4-[4-(1H-tetrazol-5-yl)benzyl-amino]cyclobut-3-ene-1,2-dione] had a negative logarithm of the IC50 (pIC50) below 6.00. The result for `COCCn1cnc2cc(Nc3c(N[C@H](C)c4cccc(O)c4)c(=O)c3=O)ccc21` [Compound A74, 3-[(R)-1-(3-hydroxyphenyl)ethylamino]-4-[1-(2-methoxyethyl)-1H-benzimidazol-5-yl-amino]cyclobut-3-ene-1,2-dione] reads below 6.00; that for `COc1cccc(C(CCC2OCCCO2)Nc2c(Nc3ccc4[nH]cnc4c3)c(=O)c2=O)c1` (centres unmarked) [Compound A138, 3-(1H-benzimidazol-5-ylamino)-4-[3-[1,3]-dioxan-2-yl-1-(3-methoxyphenyl)propyl-amino]cyclobut-3-ene-1,2-dione], below 6.00; that for `COCCn1cnc2ccc(Nc3c(N[C@H](C)c4cccc(O)c4)c(=O)c3=O)cc21` [Compound A68, 3-[3-(2-methoxyethyl)-3H-benzimidazol-5-ylamino]-4-[(R)-1-(3-hydroxyphenyl)ethyl-amino]cyclobut-3-ene-1,2-dione], above 6.00. The result for `O=c1c(NCc2ccc(F)c(F)c2)c(Nc2ccc3[nH]cnc3c2)c1=O` [Compound A43, 3-(1H-benzimidazol-5-ylamino)-4-(3,4-di-fluorobenzylamino)cyclobut-3-ene-1,2-dione] reads below 6.00.
